Measured values: BindingDB's records for doi:10.1021/jm9703911 (Allergan, 1997)

Columns and labels:
[1] = target: T1, Retinoic acid receptor alpha (Homo sapiens, UniProt P10276); test: Inhibition of [3H]ATRA binding to baculovirus expressed RAR alpha receptor
T1 sequence (P10276 whole entry): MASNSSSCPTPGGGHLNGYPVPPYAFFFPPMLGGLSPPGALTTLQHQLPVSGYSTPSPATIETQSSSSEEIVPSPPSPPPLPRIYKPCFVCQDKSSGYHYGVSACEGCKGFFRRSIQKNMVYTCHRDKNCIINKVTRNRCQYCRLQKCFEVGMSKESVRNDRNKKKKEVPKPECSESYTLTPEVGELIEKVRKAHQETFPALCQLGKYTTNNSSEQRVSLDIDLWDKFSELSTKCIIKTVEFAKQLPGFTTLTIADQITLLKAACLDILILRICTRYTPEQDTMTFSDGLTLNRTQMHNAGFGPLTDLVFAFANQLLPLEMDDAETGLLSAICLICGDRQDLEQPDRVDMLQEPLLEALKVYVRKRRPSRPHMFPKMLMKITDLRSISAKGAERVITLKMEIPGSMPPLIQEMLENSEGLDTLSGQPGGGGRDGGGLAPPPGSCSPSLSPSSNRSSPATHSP

[2] = target: T2, Retinoic acid receptor beta (Homo sapiens, UniProt P10826); test: Inhibition of [3H]-ATRA binding to baculovirus expressed RAR beta receptor
T2 sequence (P10826 whole entry): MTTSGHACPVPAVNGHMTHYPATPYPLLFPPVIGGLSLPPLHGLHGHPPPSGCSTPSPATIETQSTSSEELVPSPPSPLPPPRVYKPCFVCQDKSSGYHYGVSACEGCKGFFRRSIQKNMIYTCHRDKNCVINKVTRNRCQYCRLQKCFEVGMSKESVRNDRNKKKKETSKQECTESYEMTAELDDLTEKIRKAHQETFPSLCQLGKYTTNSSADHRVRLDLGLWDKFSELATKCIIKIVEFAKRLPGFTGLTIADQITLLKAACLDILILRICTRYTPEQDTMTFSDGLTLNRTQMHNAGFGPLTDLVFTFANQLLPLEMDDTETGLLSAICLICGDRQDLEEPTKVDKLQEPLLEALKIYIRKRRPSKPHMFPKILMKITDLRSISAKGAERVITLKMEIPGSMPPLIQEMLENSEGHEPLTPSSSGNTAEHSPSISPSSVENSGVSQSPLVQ

[3] = target: T3, Retinoic acid receptor gamma (Homo sapiens, UniProt P13631); test: Inhibition of [3H]ATRA binding to baculovirus expressed RAR gamma receptor
T3 sequence (P13631 whole entry): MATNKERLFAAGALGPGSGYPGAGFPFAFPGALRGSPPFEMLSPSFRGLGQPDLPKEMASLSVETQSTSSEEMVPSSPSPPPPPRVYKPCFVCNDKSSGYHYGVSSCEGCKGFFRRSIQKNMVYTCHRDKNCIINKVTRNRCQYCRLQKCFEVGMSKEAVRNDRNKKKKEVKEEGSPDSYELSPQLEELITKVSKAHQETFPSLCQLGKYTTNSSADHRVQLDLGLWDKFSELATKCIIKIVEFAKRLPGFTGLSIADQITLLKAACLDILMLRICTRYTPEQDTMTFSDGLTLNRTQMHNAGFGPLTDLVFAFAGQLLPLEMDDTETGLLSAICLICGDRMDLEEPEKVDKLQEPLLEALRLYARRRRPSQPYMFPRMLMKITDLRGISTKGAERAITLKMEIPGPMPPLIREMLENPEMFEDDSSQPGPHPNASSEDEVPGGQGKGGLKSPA

Compound	Kd [1] [nM]	Kd [2] [nM]	Kd [3] [nM]
Cc1ccc(C2=CC(C)(C)Oc3c(Br)cc(C(=O)Nc4cc(F)c(C(=O)O)c(F)c4)cc32)cc1	1.5	898	10600
Cc1ccc(C2=CCC(C)(C)c3ccc(C(=O)Nc4cc(F)c(C(=O)O)c(F)c4)cc32)cc1	32	2260	> 30000
Cc1ccc(C2=CC(C)(C)Oc3c(Br)cc(C(=O)Nc4ccc(C(=O)O)c(F)c4)cc32)cc1	2.8	320	7260

Results, then the molecule that gave them:

Kd [1] [nM]	Kd [2] [nM]	Kd [3] [nM]	Compound
5.7	622	863	Cc1ccc(C2=CCC(C)(C)c3ccc(C(=O)Nc4ccc(C(=O)O)c(F)c4)cc32)cc1
27	1020	3120	Cc1ccc(C2=CCC(C)(C)c3ccc(C(=O)Nc4ccc(C(=O)O)cc4)cc32)cc1
